{"source": "ChEMBL document CHEMBL3352553", "about": "“Discovery of (E)-5-(benzylideneamino)-1H-benzo[d]imidazol-2(3H)-one derivatives as inhibitors for PTK6” (Bioorg Med Chem Lett, 2014)", "key": {"[1]": {"biological_target": "T1, Protein-tyrosine kinase 6 (Homo sapiens, UniProt Q13882)", "T1 sequence (Q13882 whole entry)": "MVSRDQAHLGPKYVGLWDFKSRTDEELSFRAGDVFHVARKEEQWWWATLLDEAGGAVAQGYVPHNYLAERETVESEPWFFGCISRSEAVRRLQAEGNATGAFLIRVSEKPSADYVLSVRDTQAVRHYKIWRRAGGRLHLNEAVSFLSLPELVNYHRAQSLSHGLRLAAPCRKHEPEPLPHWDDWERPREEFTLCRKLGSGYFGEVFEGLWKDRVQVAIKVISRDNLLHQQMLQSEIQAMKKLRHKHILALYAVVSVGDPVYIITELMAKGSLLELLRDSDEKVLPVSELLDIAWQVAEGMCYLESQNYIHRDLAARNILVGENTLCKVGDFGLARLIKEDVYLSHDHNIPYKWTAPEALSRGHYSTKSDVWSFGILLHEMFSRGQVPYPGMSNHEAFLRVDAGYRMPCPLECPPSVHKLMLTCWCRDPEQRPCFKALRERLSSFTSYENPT", "assay": "Inhibition of GST-tagged PTK6 (unknown origin) assessed as phosphorylated tyrosines after 20 mins by ELISA"}, "[2]": {"biological_target": "T1, Protein-tyrosine kinase 6", "assay": "Inhibition of PTK6 (unknown origin) expressed in HEK293 cells assessed as decrease in tyrosine phosphorylation by chemiluminescence assay", "assay_type": "cell-based"}, "HFF [3]": {"system": "HFF", "assay": "Cytotoxicity against human foreskin fibroblast after 24 hrs by MTT assay", "assay_type": "cell-based"}, "HFF [4]": {"system": "HFF", "assay": "Cytotoxicity against human foreskin fibroblast up to 100 uM after 24 hrs by MTT assay", "assay_type": "cell-based"}, "[5]": {"biological_target": "Tyrosine-protein kinase Fyn (Homo sapiens, UniProt P06241)", "sequence (P06241 whole entry)": "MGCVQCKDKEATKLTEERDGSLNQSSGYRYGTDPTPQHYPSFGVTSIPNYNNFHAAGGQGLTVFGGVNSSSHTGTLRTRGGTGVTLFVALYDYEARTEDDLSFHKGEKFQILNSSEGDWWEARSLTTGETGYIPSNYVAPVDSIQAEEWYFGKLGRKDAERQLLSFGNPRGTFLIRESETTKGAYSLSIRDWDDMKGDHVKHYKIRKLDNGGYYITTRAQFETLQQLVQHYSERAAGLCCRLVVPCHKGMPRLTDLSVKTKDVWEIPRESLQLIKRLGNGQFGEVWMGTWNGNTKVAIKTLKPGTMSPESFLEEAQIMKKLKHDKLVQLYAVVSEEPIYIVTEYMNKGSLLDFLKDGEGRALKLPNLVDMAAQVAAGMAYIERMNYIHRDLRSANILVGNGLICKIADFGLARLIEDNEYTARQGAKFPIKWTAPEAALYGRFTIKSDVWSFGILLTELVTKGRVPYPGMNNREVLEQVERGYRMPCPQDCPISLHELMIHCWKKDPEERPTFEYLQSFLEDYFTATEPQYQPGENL", "assay": "Inhibition of Fyn (unknown origin) expressed in HEK293 cells assessed as decrease in phosphorylation by chemiluminescence assay", "assay_type": "cell-based"}, "[6]": {"biological_target": "Proto-oncogene tyrosine-protein kinase Src (Homo sapiens, UniProt P12931)", "sequence (P12931 2-536 limits assumed)": "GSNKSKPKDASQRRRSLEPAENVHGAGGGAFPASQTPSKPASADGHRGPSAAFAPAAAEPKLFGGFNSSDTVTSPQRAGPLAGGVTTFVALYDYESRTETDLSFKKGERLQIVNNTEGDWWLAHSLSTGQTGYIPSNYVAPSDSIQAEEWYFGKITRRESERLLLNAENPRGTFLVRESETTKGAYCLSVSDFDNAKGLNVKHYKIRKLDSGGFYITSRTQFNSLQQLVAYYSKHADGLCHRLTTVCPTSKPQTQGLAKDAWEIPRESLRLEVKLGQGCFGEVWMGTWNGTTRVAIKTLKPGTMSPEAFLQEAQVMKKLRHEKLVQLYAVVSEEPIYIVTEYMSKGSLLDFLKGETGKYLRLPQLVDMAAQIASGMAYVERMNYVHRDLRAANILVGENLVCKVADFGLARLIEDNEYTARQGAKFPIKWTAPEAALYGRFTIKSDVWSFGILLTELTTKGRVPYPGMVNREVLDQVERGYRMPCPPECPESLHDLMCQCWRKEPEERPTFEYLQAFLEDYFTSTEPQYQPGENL", "assay": "Inhibition of Src (unknown origin) expressed in HEK293 cells assessed as decrease in phosphorylation by chemiluminescence assay", "assay_type": "cell-based"}, "[7]": {"biological_target": "Epidermal growth factor receptor (Homo sapiens, UniProt P00533)", "sequence (P00533 whole entry)": "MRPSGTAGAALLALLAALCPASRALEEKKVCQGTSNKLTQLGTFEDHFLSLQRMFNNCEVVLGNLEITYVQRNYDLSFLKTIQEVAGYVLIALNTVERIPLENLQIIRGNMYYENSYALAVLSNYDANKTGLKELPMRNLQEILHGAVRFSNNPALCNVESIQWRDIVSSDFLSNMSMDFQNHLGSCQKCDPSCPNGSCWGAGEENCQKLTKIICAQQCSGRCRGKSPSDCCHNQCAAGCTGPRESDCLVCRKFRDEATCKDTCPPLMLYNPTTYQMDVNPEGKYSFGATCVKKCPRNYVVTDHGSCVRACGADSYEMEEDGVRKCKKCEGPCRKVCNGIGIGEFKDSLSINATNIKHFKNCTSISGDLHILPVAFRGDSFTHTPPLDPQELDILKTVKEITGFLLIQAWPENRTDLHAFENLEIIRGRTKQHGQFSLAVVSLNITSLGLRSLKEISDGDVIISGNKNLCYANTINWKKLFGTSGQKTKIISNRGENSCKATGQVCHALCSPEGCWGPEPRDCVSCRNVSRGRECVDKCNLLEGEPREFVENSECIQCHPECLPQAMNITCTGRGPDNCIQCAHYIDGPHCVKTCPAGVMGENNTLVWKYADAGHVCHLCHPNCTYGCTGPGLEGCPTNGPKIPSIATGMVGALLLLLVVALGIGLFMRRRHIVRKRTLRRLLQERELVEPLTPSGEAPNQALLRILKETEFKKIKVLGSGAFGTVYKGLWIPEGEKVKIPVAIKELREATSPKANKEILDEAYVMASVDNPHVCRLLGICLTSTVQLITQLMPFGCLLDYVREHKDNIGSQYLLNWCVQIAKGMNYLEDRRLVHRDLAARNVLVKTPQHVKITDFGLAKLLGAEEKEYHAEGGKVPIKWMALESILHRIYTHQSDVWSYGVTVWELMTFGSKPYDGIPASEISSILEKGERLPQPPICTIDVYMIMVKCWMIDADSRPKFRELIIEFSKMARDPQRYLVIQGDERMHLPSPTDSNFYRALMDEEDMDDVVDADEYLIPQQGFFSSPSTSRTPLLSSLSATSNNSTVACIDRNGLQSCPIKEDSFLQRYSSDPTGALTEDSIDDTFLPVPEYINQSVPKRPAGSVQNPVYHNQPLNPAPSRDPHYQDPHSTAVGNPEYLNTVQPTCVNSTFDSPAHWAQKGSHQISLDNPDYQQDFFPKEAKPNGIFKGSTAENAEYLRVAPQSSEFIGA", "description": "Inhibition of EGFR (unknown origin) expressed in HEK293 cells assessed as decrease in phosphorylation by chemiluminescence assay"}, "[8]": {"biological_target": "T2, Cytoplasmic tyrosine-protein kinase BMX (Homo sapiens, UniProt P51813)", "T2 sequence (P51813 whole entry)": "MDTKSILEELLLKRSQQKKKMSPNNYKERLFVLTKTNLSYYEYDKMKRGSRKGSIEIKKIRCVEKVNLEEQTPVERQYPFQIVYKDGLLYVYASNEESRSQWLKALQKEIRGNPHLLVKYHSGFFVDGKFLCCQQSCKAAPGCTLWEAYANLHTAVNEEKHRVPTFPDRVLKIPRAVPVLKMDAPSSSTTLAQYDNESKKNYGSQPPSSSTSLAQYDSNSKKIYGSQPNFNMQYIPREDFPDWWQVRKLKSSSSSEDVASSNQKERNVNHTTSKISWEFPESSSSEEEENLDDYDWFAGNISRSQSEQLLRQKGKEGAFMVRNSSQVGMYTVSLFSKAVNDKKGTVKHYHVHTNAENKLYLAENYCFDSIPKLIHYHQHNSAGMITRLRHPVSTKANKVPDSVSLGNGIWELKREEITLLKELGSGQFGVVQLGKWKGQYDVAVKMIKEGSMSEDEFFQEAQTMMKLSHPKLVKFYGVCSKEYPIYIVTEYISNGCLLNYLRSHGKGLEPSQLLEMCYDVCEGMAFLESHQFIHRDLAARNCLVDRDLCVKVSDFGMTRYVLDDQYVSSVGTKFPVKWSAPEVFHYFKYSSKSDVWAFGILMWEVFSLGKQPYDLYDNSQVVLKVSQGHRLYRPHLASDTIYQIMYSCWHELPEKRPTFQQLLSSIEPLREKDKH", "assay": "Inhibition of Bmx (unknown origin) expressed in HEK293 cells assessed as decrease in phosphorylation by chemiluminescence assay", "assay_type": "cell-based"}}, "note": "pIC50: −log10 of the molar value.", "data": [{"smiles": "O=c1[nH]c2ccc(/N=C/c3cc(Br)ccc3O)cc2[nH]1", "values": [{"measurement": "pIC50", "setting": "[1]", "value": 5.72}, {"measurement": "pIC50", "setting": "[2]", "value": "< 4.00"}]}, {"smiles": "O=c1[nH]c2ccc(/N=C/c3ccccc3)cc2[nH]1", "values": [{"measurement": "pIC50", "setting": "[1]", "value": "< 5.00"}]}, {"smiles": "O=c1[nH]c2ccc(/N=C/c3ccccc3O)cc2[nH]1", "values": [{"measurement": "pIC50", "setting": "[1]", "value": 5.70}, {"measurement": "pIC50", "setting": "[2]", "value": "< 4.00"}]}, {"smiles": "COc1ccc(Br)cc1/C=N/c1ccc2[nH]c(=O)[nH]c2c1", "values": [{"measurement": "pIC50", "setting": "[1]", "value": 4.77}, {"measurement": "pIC50", "setting": "[2]", "value": "< 4.00"}]}, {"smiles": "COc1cc(Br)cc(/C=N/c2ccc3[nH]c(=O)[nH]c3c2)c1O", "values": [{"measurement": "pIC50", "setting": "[1]", "value": 5.33}, {"measurement": "pIC50", "setting": "[2]", "value": 4.28}]}, {"smiles": "COc1cc(Br)cc(/C=N/c2ccc3[nH]c(=O)[nH]c3c2)c1OC", "values": [{"measurement": "pIC50", "setting": "[1]", "value": "< 5.00"}]}, {"smiles": "O=c1[nH]c2ccc(/N=C/c3cc(Cl)ccc3O)cc2[nH]1", "values": [{"measurement": "pIC50", "setting": "[1]", "value": 5.85}, {"measurement": "pIC50", "setting": "[2]", "value": "< 4.00"}]}, {"smiles": "COc1cccc(/C=N/c2ccc3[nH]c(=O)[nH]c3c2)c1O", "values": [{"measurement": "pIC50", "setting": "[1]", "value": "< 5.00"}]}, {"smiles": "COc1cc(Cl)cc(/C=N/c2ccc3[nH]c(=O)[nH]c3c2)c1O", "values": [{"measurement": "pIC50", "setting": "[1]", "value": 5.77}, {"measurement": "pIC50", "setting": "[2]", "value": 4.13}]}, {"smiles": "COc1cc(I)cc(/C=N/c2ccc3[nH]c(=O)[nH]c3c2)c1O", "values": [{"measurement": "pIC50", "setting": "[1]", "value": 5.30}, {"measurement": "pIC50", "setting": "[2]", "value": 4.24}]}, {"smiles": "CCOc1cc(Br)cc(/C=N/c2ccc3[nH]c(=O)[nH]c3c2)c1O", "values": [{"measurement": "pIC50", "setting": "[1]", "value": 5.23}, {"measurement": "pIC50", "setting": "[2]", "value": 4.63}]}, {"smiles": "CCOc1cccc(/C=N/c2ccc3[nH]c(=O)[nH]c3c2)c1O", "values": [{"measurement": "pIC50", "setting": "[1]", "value": "< 5.00"}]}, {"smiles": "CCOc1cc(Cl)cc(/C=N/c2ccc3[nH]c(=O)[nH]c3c2)c1O", "values": [{"measurement": "pIC50", "setting": "[1]", "value": 5.70}, {"measurement": "pIC50", "setting": "[2]", "value": 4.29}]}, {"smiles": "O=c1[nH]c2ccc(/N=C/c3cc(Br)cc(Br)c3O)cc2[nH]1", "values": [{"measurement": "pIC50", "setting": "[1]", "value": 5.25}, {"measurement": "pIC50", "setting": "[2]", "value": 4.31}]}, {"smiles": "O=c1[nH]c2ccc(/N=C/c3ccc(O)cc3O)cc2[nH]1", "values": [{"measurement": "pIC50", "setting": "[1]", "value": "< 5.00"}]}, {"smiles": "COc1ccc(/C=N/c2ccc3[nH]c(=O)[nH]c3c2)c(O)c1", "values": [{"measurement": "pIC50", "setting": "[1]", "value": "< 5.00"}]}, {"smiles": "O=c1[nH]c2ccc(/N=C/c3c(O)cccc3Br)cc2[nH]1", "values": [{"measurement": "pIC50", "setting": "[1]", "value": 5.87}, {"measurement": "pIC50", "setting": "[2]", "value": 4.61}]}, {"smiles": "COc1ccc(Br)c(/C=N/c2ccc3[nH]c(=O)[nH]c3c2)c1O", "values": [{"measurement": "pIC50", "setting": "[1]", "value": 5.41}, {"measurement": "pIC50", "setting": "[2]", "value": 4.78}]}, {"smiles": "O=c1[nH]c2ccc(/N=C/c3c(O)c(Br)cc(Br)c3Br)cc2[nH]1", "values": [{"measurement": "pIC50", "setting": "[1]", "value": 6.39}, {"measurement": "pIC50", "setting": "[2]", "value": 4.93}]}, {"smiles": "COc1cc(Br)c(Br)c(/C=N/c2ccc3[nH]c(=O)[nH]c3c2)c1O", "values": [{"measurement": "Activity", "setting": "HFF [3]", "value": "Toxic"}, {"measurement": "pIC50", "setting": "[1]", "value": 6.92}, {"measurement": "Activity", "setting": "HFF [4]", "value": "Toxic"}, {"measurement": "pIC50", "setting": "[5]", "value": 4.41}, {"measurement": "pIC50", "setting": "[6]", "value": "< 4.00"}, {"measurement": "pIC50", "setting": "[2]", "value": 5.84}, {"measurement": "pIC50", "setting": "[7]", "value": 4.05}, {"measurement": "pIC50", "setting": "[8]", "value": 4.41}]}, {"smiles": "CCOc1cc(Br)c(Br)c(/C=N/c2ccc3[nH]c(=O)[nH]c3c2)c1O", "values": [{"measurement": "pIC50", "setting": "[1]", "value": 6.28}, {"measurement": "Activity", "setting": "HFF [4]", "value": "Non-toxic"}, {"measurement": "pIC50", "setting": "[5]", "value": 4.16}, {"measurement": "pIC50", "setting": "[6]", "value": "< 4.00"}, {"measurement": "pIC50", "setting": "[2]", "value": 5.80}, {"measurement": "pIC50", "setting": "[7]", "value": 4.12}, {"measurement": "pIC50", "setting": "[8]", "value": 4.37}]}, {"smiles": "CCOc1cc(Cl)c(Cl)c(/C=N/c2ccc3[nH]c(=O)[nH]c3c2)c1O", "values": [{"measurement": "pIC50", "setting": "[1]", "value": 5.89}, {"measurement": "pIC50", "setting": "[2]", "value": 5.46}]}, {"smiles": "COc1cc(Br)c(Br)c(CNc2ccc3[nH]c(=O)[nH]c3c2)c1O", "values": [{"measurement": "pIC50", "setting": "[1]", "value": "< 5.00"}]}, {"smiles": "CCOc1cc(Br)c(Br)c(CNc2ccc3[nH]c(=O)[nH]c3c2)c1O", "values": [{"measurement": "pIC50", "setting": "[1]", "value": 5.32}]}, {"smiles": "COc1cc(Br)c(Br)c(/C=N/c2ccc3[nH]ccc3c2)c1O", "values": [{"measurement": "pIC50", "setting": "[1]", "value": 6.57}, {"measurement": "pIC50", "setting": "[2]", "value": 5.46}]}, {"smiles": "COc1cc(Br)c(Br)c(/C=N/c2ccc3[nH]cnc3c2)c1O", "values": [{"measurement": "pIC50", "setting": "[1]", "value": 6.70}, {"measurement": "pIC50", "setting": "[2]", "value": 5.26}]}, {"smiles": "COc1cc(Br)c(Br)c(/C=N/c2ccc3scnc3c2)c1O", "values": [{"measurement": "pIC50", "setting": "[1]", "value": 5.89}, {"measurement": "pIC50", "setting": "[2]", "value": 5.34}]}, {"smiles": "CCOc1cc(Br)c(Br)c(/C=N/c2ccc3[nH]ccc3c2)c1O", "values": [{"measurement": "pIC50", "setting": "[1]", "value": 6.44}, {"measurement": "pIC50", "setting": "[2]", "value": 5.12}]}, {"smiles": "CCOc1cc(Br)c(Br)c(/C=N/c2ccc3[nH]cnc3c2)c1O", "values": [{"measurement": "pIC50", "setting": "[1]", "value": 6.89}, {"measurement": "pIC50", "setting": "[2]", "value": 5.33}]}, {"smiles": "CCOc1cc(Br)c(Br)c(/C=N/c2ccc3scnc3c2)c1O", "values": [{"measurement": "pIC50", "setting": "[1]", "value": 5.93}, {"measurement": "pIC50", "setting": "[2]", "value": 5.60}]}, {"smiles": "N#C/C(=C\\c1c[nH]c2ccccc12)C(=O)c1ccc(O)c(O)c1", "values": [{"measurement": "pIC50", "setting": "[1]", "value": 5.63}, {"measurement": "pIC50", "setting": "[2]", "value": 4.27}]}, {"smiles": "O=c1c(-c2ccc(O)cc2)coc2cc(O)cc(O)c12", "note": "[GENISTEIN]", "values": [{"measurement": "pIC50", "setting": "[5]", "value": 4.24}, {"measurement": "pIC50", "setting": "[6]", "value": "< 4.00"}, {"measurement": "pIC50", "setting": "[8]", "value": 4.17}]}]}
